From US20160287646A1, “MACROALGAE COMPOSITIONS, PROCESSES FOR PREPARATION THEREOF, AND USES IN SPORTS NUTRITION” (OmniActive Health Technologies (Canada) Limited, priority 2015, published 2016)

How the values were obtained:
C2C12 cells [1] = assay: Mitochondrial mass (NAO probe fluorescence) in differentiated C2C12 cells; type: cell-based, mouse; conditions: fluorescent intensity relative to untreated control
Description: (§1) Mouse skeletal myoblasts C2C12 cells were used as a cell model to assess mitochondrial function and IGF-1 expression. Cells were cultured as undifferentiated myoblasts in high-serum growth media DMEM (Dulbecco's Modified Eagle Medium), supplemented with 10% FBS (Fetal bovine serum) and 1% penicillin/streptomycin. Cells were grown to full confluency at 37° C. in a humidified incubator with 5% CO2.
The effect of treatment with macroalgae composition on mitochondrial mass was assessed by measuring changes in fluorescent intensity in differentiated C2C12 cells. The nonylacridine orange (NAO) probe binds to cardiolipin in all mitochondria, regardless of their energetic state, providing a measure of mitochondrial mass and an indication of mitochondrial biogenesis. C2C12 cells were seeded in 96-well culture plates at a density of 2×10^4 cells/mL, induced to differentiate, and pre-treated with or without select macroalgae composition and controls. […] Probe fluorescence was measured (excitation 380 nm, emission 645 nm) using a fluorescence plate reader. Fluorescent intensity relative to untreated control was then calculated. To standardize probe fluorescence to protein content of the cells, total protein content (in μg) was assessed by bicinchoninic acid (BCA) using bovine serum albumin as standard.

[2] = system: insulin-like growth factor-1 (IGF-1); assay: IGF-1 ELISA in differentiated C2C12 cells; type: cell-based, mouse; conditions: cell culture supernatants
Description: as §1
To evaluate the effect of treatment with macroalgae composition on insulin-like growth factor-1 (IGF-1) concentrations in differentiated C2C12 cells, the mouse IGF-1 enzyme-linked immunosorbent assay (ELISA) kit (Sigma) was utilized. The kit provides a quantitative measurement of mouse IGF-1 in cell culture supernatants by employing an antibody specific coated 96-well plate. Standards and samples were added to the coated plate and any IGF-1 present in the sample bound to the immobilized antibody. After washing away any unbound antibody, HRP-conjugated streptavidin was added to the wells. The wells were washed again, followed by addition of a colorimetric TMB reagent. Color developed in proportion to the amount of bound IGF-1. Addition of a stop solution changed the color from blue to yellow, and the color intensity was read at A450 with a microplate reader. Blank-corrected unknown sample protein concentrations were then extrapolated from a known standard curve.

H295R cells = assay: Cortisol production immunoassay in H295R cells; type: cell-based, human; conditions: 24 h incubation
Description: It is a human adrenal cell line that presents a steroid secretion pattern and regulation similar to primary cultures of adrenal cells.
Cells were then incubated in the presence or absence of macroalgae composition for 24 h before assessing cortisol production.
To evaluate the effect of treatment with macroalgae composition on cortisol concentrations in H295R cells, the DetectX® (Arbor Assays) immunoassay was utilized. A cortisol standard was provided to generate a standard curve for the assay and all samples were read off the standard curve. Standards or samples were pipetted into a clear microtiter plate coated with an antibody. A cortisol-peroxidase conjugate was added to the standards and samples in the wells. The binding reaction was initiated by the addition of a monoclonal antibody to cortisol to each well. After 1 hour incubation, the plate was washed and substrate was added. The substrate reacted with the bound cortisol-peroxidase conjugate. After a short incubation, the reaction was stopped and the intensity of the generated color was detected in a microtiter plate reader capable of measuring 450 nm wavelength. The concentration of cortisol in the samples was then calculated.

C2C12 cells [3] = assay: Mitochondrial oxygen consumption (MitoXpress probe) in differentiated C2C12 cells; type: cell-based, mouse; conditions: macroalgae composition 100 ug/ml
Description: as §1
Extracellular oxygen consumption in differentiated C2C12 cells was measured by assessing phosphorescence of a porphyrin-based, water soluble, oxygen sensitive probe (MitoXpress®-Xtra-HS, Luxcel Biosciences). Probe fluorescence is quenched by molecular oxygen (O2), resulting in lower probe signal. As cellular respiration reduces the concentration of O2, probe signal increases. The rate of this increase is related to the rate of cellular oxygen consumption. C2C12 cells were seeded in 96-well culture plates at a density of 2×10^4 cells/mL, induced to differentiate, and incubated with MitoXpress probe ([…] the presence or absence of macroalgae composition (100 ug/ml). High sensitivity mineral oil was added (100 μL/well) to increase assay sensitivity by minimizing interference from ambient O2. Probe fluorescence was measured (excitation 380 nm, emission 645 nm) using a fluorescence plate reader.

PGC-1α = assay: PGC-1alpha ELISA in differentiated C2C12 cells; type: cell-based, mouse; conditions: overnight treatment, extracts 100 ug/mL, caffeine 500 uM, resveratrol 100 uM, control 100.01
Description: C2C12 cells (ATCC® CRL-1772) were seeded in 24- or 96-well culture plates as undifferentiated myoblasts and grown to 100% confluency in ATCC-formulated Dulbecco's Modified Eagle's Medium (DMEM) supplemented with 10% heat-inactivated fetal bovine serum (FBS). […] Differentiation medium consisted of ATCC-formulated DMEM supplemented with 2% heat-inactivated horse serum and was changed daily during the differentiation process. Cell culture conditions were maintained at 37° C. in a humidified atmosphere of 5% CO2/95% air. After 5 days of differentiation, cells were incubated in the presence or absence of macroalgae composition (with control). Cells were treated with macroalgae compositions and also control samples to check effect on said biomarkers. The compositions and control samples used are mentioned in the respective table, showing results of the test. The effect of select macroalgae compositions were assessed using the following assays: Concentrations of PGC-1α in differentiated C2C12 cells as a result of treatment with macroalgae composition were determined by ELISA (MyBiosource). Following overnight treatment, cell lysates were collected and centrifuged to remove cellular debris. […] The amount of PGC-1α captured by the anti-PGC-1α antibody was determined using a biotinylated-IgG antibody/HRP-streptavidin detection system.

C2C12 cells [4] = assay: ATP production colorimetric assay in C2C12 myotubes; type: cell-based, mouse; conditions: extracts 100 ug/mL, caffeine 500 uM, creatine 1 uM, control 99.99
Description: C2C12 cells (ATCC® CRL-1772) were seeded in 24- or 96-well culture plates as undifferentiated myoblasts and grown to 100% confluency in ATCC-formulated Dulbecco's Modified Eagle's Medium (DMEM) supplemented with 10% heat-inactivated fetal bovine serum (FBS). […] Differentiation medium consisted of ATCC-formulated DMEM supplemented with 2% heat-inactivated horse serum and was changed daily during the differentiation process. Cell culture conditions were maintained at 37° C. in a humidified atmosphere of 5% CO2/95% air. After 5 days of differentiation, cells were incubated in the presence or absence of macroalgae composition (with control). […] The effect of select macroalgae compositions were assessed using the following assays:
To evaluate the effect of macroalgae composition on ATP levels, colorimetric assay kit (Sigma-Aldrich, St. Louis, Mo.) was used, which is an enzyme-linked approach that involves the conversion of ATP in the test sample to ADP via the action of glycerol kinase which catalyses the transfer of the phosphate group to glycerol. The reaction was monitored by use of colorimetric product whose concentration varies proportional to the amount of ATP present. […] After 30 minutes, the absorbance at 570 nm will be measured using a microplate reader, and ATP concentrations will be extrapolated from a standard curve.

C2C12 cells [5] = assay: Glucose uptake bioluminescent assay (2DG6P) in C2C12 cells; type: cell-based, mouse; conditions: for Glucose Uptake - glucose + insulin: 25 mM glucose + 1 uM insulin, compared to non-treated samples (glucose only 100.0)
Description: (§2) C2C12 cells (ATCC® CRL-1772) were seeded in 24- or 96-well culture plates as undifferentiated myoblasts and grown to 100% confluency in ATCC-formulated Dulbecco's Modified Eagle's Medium (DMEM) supplemented with 10% heat-inactivated fetal bovine serum (FBS). […] Differentiation medium consisted of ATCC-formulated DMEM supplemented with 2% heat-inactivated horse serum and was changed daily during the differentiation process. Cell culture conditions were maintained at 37° C. in a humidified atmosphere of 5% CO2/95% air. After 5 days of differentiation, cells were incubated in the presence or absence of macroalgae composition (with control). Cells were treated with macroalgae compositions and also control samples to check effect on said biomarkers. The compositions and control samples used are mentioned in the respective table, showing results of the test. The effect of select macroalgae compositions were assessed using the following assays:
(§3) Glucose uptake in C2C12 cells was determined by bioluminescent assay (Promega), based on the detection of 2-deoxyglucose-6-phosphate (2DG6P). When […] to cells, it is transported across the membrane and rapidly phosphorylated. However, further modification is not possible, resulting in accumulation within the cell. Addition of a 2DG6P detection reagent, leading to the generation of NADPH from 2DG6P, luciferin from NADPH, and light from luciferin, allows for detection of a bioluminescent signal. Overall, the luminescent signal is proportional to the concentration of 2DG6P, and thus the rate of glucose uptake. Glycogen synthesis was determined in cell culture lysates from differentiated C2C12 cells using a colorimetric assay kit from BioVision Inc. This involves the addition of glucoamylase to the samples that hydrolyzes glycogen to glucose; the glucose is then oxidized to form an intermediate that reduces OxiRed, forming a colored product with strong absorbance at 570 nm.

C2C12 cells [6] = assay: Glycogen synthesis colorimetric assay in differentiated C2C12 cells; type: cell-based, mouse; conditions: for Glycogen Content - glucose + insulin: 30 mM glucose + 100 nM insulin, compared to non-treated samples (glucose only 100.0); for Glycogen Content - glucose only: 30 mM glucose, compared to non-treated samples (100.0)
Description: as §2, §3

[7] = system: mTOR (the mammalian target of rapamycin); assay: BioPlex cell signaling assay, relative phosphorylation of mTOR in C2C12 cells; type: cell-based, mouse; conditions: differentiated C2C12 cells pre-treated 2 hours; ratio of fluorescence of phospho-protein to total protein
Description: (§4) The effects of macroalgae composition on biomarkers of sport nutrition based on protein synthesis platform were evaluated, wherein the compositions were tested with an initial MTT assay (MIT is a name of dye 3-(4,5-dimethylthiazol-2-yl)-2,5-diphenyltetrazolium bromide) to determine cytotoxicity and establish dose range for testing.
(§5) Test inputs chosen for the protein synthesis assay platform were assessed using BioPlex (BioRad) cell signaling assays, based on the principle of the sandwich ELISA. Capture antibodies directed against the desired biomarker were covalently coupled to magnetic beads, which reacted with the sample containing the biomarker of interest. After a series of wash steps to remove any unbound protein, a biotinylated detection antibody was added to create a “sandwich” complex. The final detection complex was formed with the addition of a streptavidin-phycoerythrin (SA-PE) conjugate, which serves as a fluorescent indicator. […] The beads were then re-suspended in assay buffer and read on the BioPlex MAGPIX system. […]
(§6) Phospho-PKB/PKB, Phospho-mTOR/mTOR, Phospho-p70S6k/p70S6k, their effects were more pronounced than creatine or whey protein. In Table 3 below, Phospho-PKB/PKB, Phospho-mTOR/mTOR, and Phospho-p70S6k/p70S6k are expressed as a ratio of the fluorescence of the phospho-protein divided by the fluorescence of the total protein.

p70S6k = assay: BioPlex cell signaling assay, relative phosphorylation of p70S6k in C2C12 cells; type: cell-based, mouse; conditions: differentiated C2C12 cells pre-treated 2 hours; ratio of fluorescence of phospho-protein to total protein
Description: as §4, §5, §6

Akt = assay: BioPlex cell signaling assay, relative phosphorylation of Akt (PKB) in C2C12 cells; type: cell-based, mouse; conditions: differentiated C2C12 cells pre-treated 2 hours; ratio of fluorescence of phospho-protein to total protein
Description: as §4, §5, §6

Compound	Mitochondrial Mass (C2C12 cells [1])	IGF-1 [2]	Cortisol (H295R cells)	Mitochondrial Oxygen consumption (C2C12 cells [3])	PGC1-alpha production, Relative to Control (PGC-1α)	ATP production, Relative to Control (C2C12 cells [4])	Glucose Uptake - glucose + insulin (C2C12 cells [5])	Glycogen Content - glucose + insulin (C2C12 cells [6])	Glycogen Content - glucose only (C2C12 cells [6])	Phospho-mTOR/mTOR [7]	Phospho-p70S6k/p70S6k (p70S6k)	Phospho-PKB/PKB (Akt)	Glucose (G) Uptake - glucose only (C2C12 cells [5]; 25 mM glucose, compared to non-treated samples (100.0))
Cn1c(=O)c2c(ncn2C)n(C)c1=O [Caffeine]	146	130	65	157	192.96	225.83	198.7%	164.7%	115.3%	–	–	–	–
CN(CC(=O)O)C(=N)N [Creatine]	–	–	–	–	–	233.17	–	–	–	192	162	191	–
CC(C)C[C@H](N)C(=O)O [Leucine]	157	127	65.3	144	–	–	203.7%	158.2%	111.1%	–	–	–	–
Oc1ccc(C=Cc2cc(O)cc(O)c2)cc1 [Resveratrol]	–	–	–	–	220.96	–	291.0%	223.9%	142.9%	–	–	–	132.4%
Insulin: control in protein synthesis assay; co-stimulus in glucose uptake and glycogen assays	–	–	–	–	–	–	189.5%	153.6%	–	311	241	315	–
